Source: patent US20240217947A1, “Morpholinylquinazoline Compound, Pharmaceutical compositions thereof and Use Thereof” (SHANGHAI YINGLI PHARMACEUTICAL CO., LTD, priority 2022, published 2024)

Key:
Assay type in all cases: biochemical
HDAC6 = biological target: T1, HDAC6 (Homo sapiens, UniProt Q9UBN7); test: HDAC6 enzyme activity inhibition IC50 evaluation experiment; conditions: HDAC6 5 nM, acetylated peptide 11 μM, trypsin, fluorescence
T1 sequence (Q9UBN7 1-1215): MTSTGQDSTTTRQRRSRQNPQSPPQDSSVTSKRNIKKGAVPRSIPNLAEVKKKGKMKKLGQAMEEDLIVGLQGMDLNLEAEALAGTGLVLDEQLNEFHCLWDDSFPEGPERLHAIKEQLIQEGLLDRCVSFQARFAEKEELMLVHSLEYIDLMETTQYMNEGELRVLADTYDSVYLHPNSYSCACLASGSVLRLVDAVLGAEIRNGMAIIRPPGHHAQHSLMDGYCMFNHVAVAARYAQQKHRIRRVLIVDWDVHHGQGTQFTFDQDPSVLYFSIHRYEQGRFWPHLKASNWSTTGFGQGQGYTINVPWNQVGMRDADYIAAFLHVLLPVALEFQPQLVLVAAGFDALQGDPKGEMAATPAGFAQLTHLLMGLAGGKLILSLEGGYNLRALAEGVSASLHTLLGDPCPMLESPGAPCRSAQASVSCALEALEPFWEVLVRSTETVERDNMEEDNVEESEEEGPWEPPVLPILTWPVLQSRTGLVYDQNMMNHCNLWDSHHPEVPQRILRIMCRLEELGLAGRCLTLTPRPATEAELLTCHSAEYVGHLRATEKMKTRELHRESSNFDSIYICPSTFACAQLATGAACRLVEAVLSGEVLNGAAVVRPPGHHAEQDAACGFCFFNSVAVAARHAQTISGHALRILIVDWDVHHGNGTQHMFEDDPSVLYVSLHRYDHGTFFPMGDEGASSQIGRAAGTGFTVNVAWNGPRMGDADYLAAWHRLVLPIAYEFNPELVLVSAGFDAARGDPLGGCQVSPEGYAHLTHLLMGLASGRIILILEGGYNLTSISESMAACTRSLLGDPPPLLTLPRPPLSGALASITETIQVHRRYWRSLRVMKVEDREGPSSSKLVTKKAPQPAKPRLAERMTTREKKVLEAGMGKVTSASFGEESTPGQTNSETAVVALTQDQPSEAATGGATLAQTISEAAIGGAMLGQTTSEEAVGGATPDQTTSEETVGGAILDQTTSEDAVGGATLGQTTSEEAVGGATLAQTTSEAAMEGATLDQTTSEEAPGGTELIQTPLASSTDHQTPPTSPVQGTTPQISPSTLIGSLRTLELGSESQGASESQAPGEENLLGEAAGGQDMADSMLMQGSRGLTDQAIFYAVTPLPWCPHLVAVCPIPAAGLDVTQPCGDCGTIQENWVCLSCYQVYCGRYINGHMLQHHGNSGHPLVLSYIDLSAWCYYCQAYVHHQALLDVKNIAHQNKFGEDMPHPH
Method: Effect Example 2 HDAC1, HDAC2, HDAC3, HDAC6 enzyme activity inhibition IC50 evaluation experiment
Buffer solution (50 mM Tris 7.5, 0.01% Tween-20, 50 mM NaCl) was prepared according to the kit instructions, and the enzyme solution and substrate solution (acetylated peptide with the addition of trypsin) were prepared using the buffer solution. The test compound samples were dissolved with DMSO and added to the screening system at a certain starting concentration such as 10 μM, 3-fold dilution, while setting up a DMSO control and no-enzyme control. The enzyme reaction system includes: buffer, enzyme [final concentration: HDAC1=10 nM, HDAC2=4 nM, HDAC3=7 nM, HDAC6=5 nM], substrate (acetylated peptide) [final concentration: Peptide(HDAC1)=8 μM, Peptide(HDAC2)=10 μM, Peptide(HDAC3)=5 μM, Peptide(HDAC6)=11 μM], trypsin [final concentration: Trypsin(HDAC1,2,3)=0.05 μM, Trypsin(HDAC6)=0.1 μM], etc. The enzymes and compounds were reacted at room temperature for 15 min. After adding the substrate and Trypsin, centrifugation was performed for 1 min, and the fluorescence signal data (excitation wavelength 355 nM/emission wavelength 460 nm) was read continuously for 60 min using Envision, and the linear reaction segment was selected to obtain the slope and thus calculate the inhibition rate at that concentration. The IC50 value was obtained by fitting the curve using the formula Y=Bottom+(Top-Bottom)/(1+(IC50/X)^HillSlope).

PI3Kδ = PI3Kδ (Homo sapiens, UniProt O00329); test: PI3Kδ enzyme activity inhibition IC50 evaluation assay (ADP-Glo Kinase Assay); conditions: ATP 25 μM, PIP2 50 μg/mL, 1 hour room temperature, read-out: PI3K-δ IC50
Method: (§1) Effec Example 1 IC50 evaluation assay for PI3Kα, PI3Kδ, PI3Kβ and PI3Kγ enzyme activity inhibition
(§2) The experiment was performed using the ADP-Glo Kinase Assay kit, following the instructions. The following buffer solutions were prepared: 50 mM HEPES, pH 7.5, 3 mM MgCl2, 1 mM EGTA, 100 mM NaCl, 0.03% CHAPS, 2 mM DTT. The test compound samples were dissolved in DMSO and added to the screening system at a certain starting concentration such as 10 μM, 3-fold dilution, while setting up both DMSO control and no kinase control. The optimal concentrations of PI3Kα, PI3Kδ, PI3Kβ and PI3Kγ enzymes, substrate (PIP2) and ATP were prepared in buffer. The enzyme reaction system included: buffer, ATP 25 μM, kinase substrate (PIP2, 50 μg/mL), kinases [PI3Kα (0.15 μg/mL), PI3Kδ (1.2 μg/mL), PI3Kβ (0.3 μg/mL) and PI3Kγ (2.5 μg/mL)], etc. The reaction system was reacted at room temperature for 1 hour. The reaction was terminated by adding a termination reagent (ADP-Glo reagent, 5 μL), and the ADP content in the system was detected using a detection reagent (Kinase Detection Reagent, 10 μL). Signal data were collected using the Envision instrument. Calculate the percentage of (%) inhibition according to the following formula: % inhibition=(DMSO control signal value−sample signal value)/(DMSO control signal value−no-kinase control signal value). The IC50 value was obtained by fitting the curve using the formula Y=Bottom+(Top-Bottom)/(1+(IC50/X)^HillSlope).

PI3Kα = PI3Kα (Homo sapiens, UniProt P42336); test: PI3Kα enzyme activity inhibition IC50 evaluation assay (ADP-Glo Kinase Assay); conditions: ATP 25 μM, PIP2 50 μg/mL, 1 hour room temperature, read-out: PI3K-α IC50
Method: as §1, §2

Sequence of PI3Kα (P42336 whole entry, species assumed): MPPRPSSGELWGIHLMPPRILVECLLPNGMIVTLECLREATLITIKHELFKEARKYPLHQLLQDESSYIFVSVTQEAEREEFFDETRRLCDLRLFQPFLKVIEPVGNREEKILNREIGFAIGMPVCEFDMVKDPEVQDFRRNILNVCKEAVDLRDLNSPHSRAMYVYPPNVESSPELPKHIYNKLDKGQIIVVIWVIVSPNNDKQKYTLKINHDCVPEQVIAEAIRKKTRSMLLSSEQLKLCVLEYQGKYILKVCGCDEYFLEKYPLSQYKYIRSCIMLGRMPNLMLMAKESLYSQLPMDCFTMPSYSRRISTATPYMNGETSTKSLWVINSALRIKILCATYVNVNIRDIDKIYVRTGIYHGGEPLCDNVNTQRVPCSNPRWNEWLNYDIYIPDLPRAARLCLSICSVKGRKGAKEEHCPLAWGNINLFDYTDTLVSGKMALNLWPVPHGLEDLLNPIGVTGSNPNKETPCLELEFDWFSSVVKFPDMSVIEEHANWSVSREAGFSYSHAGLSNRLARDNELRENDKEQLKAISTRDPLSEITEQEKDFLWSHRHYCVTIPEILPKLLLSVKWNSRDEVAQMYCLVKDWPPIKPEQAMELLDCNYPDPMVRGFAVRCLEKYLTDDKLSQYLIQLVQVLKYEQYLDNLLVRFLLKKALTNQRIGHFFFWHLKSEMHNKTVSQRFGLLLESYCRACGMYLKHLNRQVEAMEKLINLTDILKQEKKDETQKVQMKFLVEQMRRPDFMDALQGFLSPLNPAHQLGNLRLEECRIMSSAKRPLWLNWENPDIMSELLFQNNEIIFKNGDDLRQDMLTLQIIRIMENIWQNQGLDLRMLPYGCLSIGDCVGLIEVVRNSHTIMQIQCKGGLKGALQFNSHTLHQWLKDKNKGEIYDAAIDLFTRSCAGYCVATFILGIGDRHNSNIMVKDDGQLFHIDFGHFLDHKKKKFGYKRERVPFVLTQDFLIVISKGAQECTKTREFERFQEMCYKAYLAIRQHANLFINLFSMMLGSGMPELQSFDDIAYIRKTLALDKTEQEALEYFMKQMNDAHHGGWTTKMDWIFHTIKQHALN
Sequence of PI3Kα (P27986 whole entry partner, species assumed): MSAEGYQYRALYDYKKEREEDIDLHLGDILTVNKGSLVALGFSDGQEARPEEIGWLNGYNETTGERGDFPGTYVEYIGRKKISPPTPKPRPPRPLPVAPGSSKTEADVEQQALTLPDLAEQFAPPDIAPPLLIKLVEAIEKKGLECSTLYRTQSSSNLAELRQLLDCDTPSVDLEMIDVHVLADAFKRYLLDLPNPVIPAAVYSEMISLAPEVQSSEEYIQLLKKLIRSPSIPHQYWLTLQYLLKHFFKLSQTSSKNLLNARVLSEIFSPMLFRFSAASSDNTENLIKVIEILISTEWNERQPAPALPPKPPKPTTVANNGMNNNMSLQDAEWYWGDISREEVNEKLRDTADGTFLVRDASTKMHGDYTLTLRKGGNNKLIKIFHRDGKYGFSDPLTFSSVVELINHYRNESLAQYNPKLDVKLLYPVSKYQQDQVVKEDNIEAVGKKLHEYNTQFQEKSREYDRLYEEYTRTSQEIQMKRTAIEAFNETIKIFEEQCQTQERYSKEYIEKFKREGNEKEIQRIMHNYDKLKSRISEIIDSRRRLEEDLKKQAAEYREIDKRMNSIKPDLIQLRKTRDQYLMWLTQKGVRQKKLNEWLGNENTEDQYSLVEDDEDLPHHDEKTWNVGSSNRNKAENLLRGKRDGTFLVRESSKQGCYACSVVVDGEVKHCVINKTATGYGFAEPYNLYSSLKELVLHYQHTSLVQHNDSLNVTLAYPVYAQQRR
Sequence of PI3Kδ (O00329 whole entry, species assumed): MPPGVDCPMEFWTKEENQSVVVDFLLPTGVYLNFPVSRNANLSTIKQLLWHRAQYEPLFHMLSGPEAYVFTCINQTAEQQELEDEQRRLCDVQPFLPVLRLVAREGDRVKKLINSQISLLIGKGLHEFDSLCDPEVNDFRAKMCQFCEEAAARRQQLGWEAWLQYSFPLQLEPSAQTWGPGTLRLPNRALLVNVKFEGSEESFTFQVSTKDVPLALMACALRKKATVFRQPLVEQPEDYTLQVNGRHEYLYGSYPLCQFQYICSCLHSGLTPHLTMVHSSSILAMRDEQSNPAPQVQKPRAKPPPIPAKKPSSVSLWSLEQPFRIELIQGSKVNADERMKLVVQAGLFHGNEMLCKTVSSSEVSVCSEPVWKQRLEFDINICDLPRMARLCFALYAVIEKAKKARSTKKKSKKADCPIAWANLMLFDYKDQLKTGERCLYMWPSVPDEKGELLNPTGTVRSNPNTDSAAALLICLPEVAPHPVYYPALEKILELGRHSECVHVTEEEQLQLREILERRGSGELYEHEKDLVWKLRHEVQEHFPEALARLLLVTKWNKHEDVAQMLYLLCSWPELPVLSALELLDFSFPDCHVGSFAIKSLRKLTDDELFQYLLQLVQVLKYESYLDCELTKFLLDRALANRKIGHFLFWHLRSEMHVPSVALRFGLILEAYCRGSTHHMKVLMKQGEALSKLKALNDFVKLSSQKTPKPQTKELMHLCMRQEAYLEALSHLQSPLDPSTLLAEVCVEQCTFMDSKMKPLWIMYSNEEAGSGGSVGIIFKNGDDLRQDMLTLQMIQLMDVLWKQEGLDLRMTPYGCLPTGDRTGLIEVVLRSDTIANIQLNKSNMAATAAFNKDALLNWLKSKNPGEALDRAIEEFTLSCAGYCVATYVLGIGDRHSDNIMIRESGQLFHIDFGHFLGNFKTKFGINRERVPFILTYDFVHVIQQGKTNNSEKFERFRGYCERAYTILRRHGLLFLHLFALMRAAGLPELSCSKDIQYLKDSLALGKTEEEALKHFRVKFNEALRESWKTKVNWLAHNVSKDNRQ
Sequence of PI3Kδ (P27986 whole entry partner, species assumed): as the sequence (P27986 whole entry partner, species assumed) above

Row | Structure (SMILES) | IC50 (HDAC6) [nM] | IC50 (PI3Kδ) [nM] | IC50 (PI3Kα) [nM]
1 | COc1ncc(-c2nc(N3CCOCC3)nc3c(CN4CCC(C(=O)NO)CC4)cc(F)cc23)cc1NS(C)(=O)=O [Compound 1] | 1000 to 10000 | 10 to 100 | 1000 to 10000
2 | COc1ncc(-c2nc(N3CCOCC3)nc3c(CN4CCC(/C=C/C(=O)NO)CC4)cc(F)cc23)cc1NS(C)(=O)=O [Compound 5] | 100 to 1000 | ≤ 10 | 
3 | COc1ncc(-c2nc(N3CCOCC3)nc3c(CN4CCN(CCCCC(=O)NO)CC4)cc(F)cc23)cc1NS(C)(=O)=O [Compound 6] | 100 to 1000 | ≤ 10 | 
4 | COc1ncc(-c2nc(N3CCOCC3)nc3c(OCCCCCC(=O)NO)cc(F)cc23)cc1NS(C)(=O)=O [Compound 8] | ≤ 10 | 10 to 100 | 100 to 1000
5 | COc1ncc(-c2nc(N3CCOCC3)nc3c(CN4CCN(Cc5ccc(C(=O)NO)cc5)CC4)cc(F)cc23)cc1NS(C)(=O)=O [Compound 10] | 10 to 100 | ≤ 10 | 100 to 1000
6 | COc1ncc(-c2nc(N3CCOCC3)nc3c(CN4CCC(OCCC(=O)NO)CC4)cc(F)cc23)cc1NS(C)(=O)=O [Compound 11] | 100 to 1000 | ≤ 10 | 1000 to 10000
7 | COc1ncc(-c2nc(N3CCOCC3)nc3c(CN4CCN(Cc5ncc(C(=O)NO)cn5)CC4)cc(F)cc23)cc1NS(C)(=O)=O [Compound 12] | 100 to 1000 | ≤ 10 | 100 to 1000
8 | COc1ncc(-c2nc(N3CCOCC3)nc3c(CN4CCC(OCCCC(=O)NO)CC4)cc(F)cc23)cc1NS(C)(=O)=O [Compound 13] | 100 to 1000 | ≤ 10 | 1000 to 10000
9 | COc1ncc(-c2nc(N3CCOCC3)nc3c(CN4CCC(N5CCC(C(=O)NO)CC5)CC4)cc(F)cc23)cc1NS(C)(=O)=O [Compound 14] | 1000 to 10000 | 10 to 100 | 1000 to 10000
10 | COc1ncc(-c2nc(N3CCOCC3)nc3c(CN4CCC(CCCCC(=O)NO)CC4)cc(F)cc23)cc1NS(C)(=O)=O [Compound 15] | 100 to 1000 | ≤ 10 | 100 to 1000
11 | COc1ncc(-c2nc(N3CCOCC3)nc3c(CN4CC(OCCOCC(=O)NO)C4)cc(F)cc23)cc1NS(C)(=O)=O [Compound 16] | 1000 to 10000 | 10 to 100 | 100 to 1000
12 | COc1ncc(-c2nc(N3CCOCC3)nc3c(CN4CCC(c5ccc(C(=O)NO)cc5F)CC4)cc(F)cc23)cc1NS(C)(=O)=O [Compound 17] | 10 to 100 | ≤ 10 | 1000 to 10000
13 | COc1ncc(-c2nc(N3CCOCC3)nc3c(CN4CCC(c5ccc(C(=O)NO)c(F)c5)CC4)cc(F)cc23)cc1NS(C)(=O)=O [Compound 18] | 100 to 1000 | ≤ 10 | 1000 to 10000
14 | COc1ncc(-c2nc(N3CCOCC3)nc3c(CN4CCC(c5c(F)cc(C(=O)NO)cc5F)CC4)cc(F)cc23)cc1NS(C)(=O)=O [Compound 19] | 100 to 1000 | ≤ 10 | 1000 to 10000
15 | COc1ncc(-c2nc(N3CCOCC3)nc3c(CN4CCC(c5cc(F)c(C(=O)NO)cc5F)CC4)cc(F)cc23)cc1NS(C)(=O)=O [Compound 20] | 100 to 1000 | ≤ 10 | 1000 to 10000
16 | COc1ncc(-c2nc(N3CCOCC3)nc3c(CN4CCC(C(C)(C)OCC(=O)NO)CC4)cc(F)cc23)cc1NS(C)(=O)=O [Compound 22] | 1000 to 10000 | ≤ 10 | 100 to 1000
17 | COc1ncc(-c2nc(N3CCOCC3)nc3c(CN4CCC(c5ccc(C(=O)NO)cc5)CC4)cc(F)cc23)cc1NS(C)(=O)=O [Compound 23] | 10 to 100 | ≤ 10 | 100 to 1000
18 | CS(=O)(=O)Nc1cncc(-c2nc(N3CCOCC3)nc3c(CN4CCC(CCCC(=O)NO)CC4)cc(F)cc23)c1 [Compound 24] | 10 to 100 | 10 to 100 | 1000 to 10000
19 | COc1ncc(-c2nc(N3CCOCC3)nc3c(CN4CCC(CCCC(=O)NO)CC4)cc(F)cc23)cc1NS(=O)(=O)C1CC1 [Compound 25] | 10 to 100 | 10 to 100 | 1000 to 10000
20 | COc1ncc(-c2nc(N3CCOCC3)nc3c(CN4CCC(CCCC(=O)NO)CC4)cc(F)cc23)cc1NS(=O)(=O)C(F)(F)F [Compound 26] | 10 to 100 | ≤ 10 | 100 to 1000
21 | O=C(CCCC1CCN(Cc2cc(F)cc3c(-c4cncc(NS(=O)(=O)C5CC5)c4)nc(N4CCOCC4)nc23)CC1)NO [Compound 27] |  | 10 to 100 | 1000 to 10000
22 | COc1ncc(-c2nc(N3CCOCC3)nc3c(CN4CCC(CCNC(=O)NO)CC4)cc(F)cc23)cc1NS(C)(=O)=O [Compound 28] | > 10000 | ≤ 10 | 100 to 1000
23 | COc1ncc(-c2nc(N3CCOCC3)nc3c(CN4CCC(c5ccc(C(=O)NO)cc5F)CC4)cc(F)cc23)cc1NS(=O)(=O)C(F)(F)F [Compound 29] |  | ≤ 10 | 100 to 1000
24 | COc1ncc(-c2nc(N3CCOCC3)nc3c(OC4CCN(c5ccc(C(=O)NO)cc5F)CC4)cc(F)cc23)cc1NS(C)(=O)=O [Compound 31] | 10 to 100 | 10 to 100 | 
25 | COc1ncc(-c2nc(N3CCOCC3)nc3c(O[C@H]4CC[C@H](N5CCC(C(=O)NO)CC5)CC4)cc(F)cc23)cc1NS(C)(=O)=O [Compound 32] | 1000 to 10000 | ≤ 10 | 
26 | COc1ncc(-c2nc(N3CCOCC3)nc3c(OC4CCN(Cc5ccc(C(=O)NO)cc5F)CC4)cc(F)cc23)cc1NS(C)(=O)=O [Compound 33] | 10 to 100 | 10 to 100 | 
27 | COc1ncc(-c2nc(N3CCOCC3)nc3c(CN4CCN(c5ccc(C(=O)NO)cc5F)CC4)cc(F)cc23)cc1NS(C)(=O)=O [Compound 34] | 10 to 100 | 10 to 100 | 
28 | COc1ncc(-c2nc(N3CCOCC3)nc3c(OCCc4ccc(C(=O)NO)cc4F)cc(F)cc23)cc1NS(C)(=O)=O [Compound 37] |  | 100 to 1000 | 
29 | COc1ncc(-c2nc(N3CCOCC3)nc3c(OCc4ccc(C(=O)NO)cc4F)cc(F)cc23)cc1NS(C)(=O)=O [Compound 38] |  | 10 to 100 | 
